Laboratory results reported in patent publication US4591589A, “2-aryl pyrazolo[4,3-c]cinnolin-3-ones” (Roussel Uclaf, priority 1985, dated 1986).
Where a name gives a salt, the structure may show the parent alone.

Tests used:
[1] = molecular target: benzodiazepine receptors; assay: Affinity for benzodiazepine receptors (displacement of 3H diazepam, rat brain cortex homogenate); assay type: binding; conditions: rat brain cortices; 3H diazepam 10^-9 M, 30 minutes at 0° C., pH 7.4; read-out: Cl 50 (concentration inhibiting by 50% the specific bonding of 3H diazepam)
Experimental: The cortices removed from the brains of male rats weighing an average of 150 g were homogenized to one twentieth part (weight/volume) in 0.32M sucrose. After centrifuging the homogenate at 1000 g for 10 minutes at 0° C., the supernatant layer was centrifuged at 30,000 g for 20 minutes at +4° C. The residue was suspended in 20 volumes of Tris HCl 50 mM buffer with a pH of 7.4 and centrifuged at 30,000 g for 20 minutes at +4° C. The new residue obtained was suspended in 50 ml of Krebs Tris HCl buffer, pH 7.4.
2 ml of this suspension in the presence of ^3 H diazepam at a concentration of 10^-9 M was incubated for 30 minutes at 0° C., alone, and with increasing concentrations of the product under test, or to determine the non-specific fixation, with non-radio-active diazepam at a concentration of 10^-6 M. The incubated suspensions were filtered on Whatman GF/C and the filters were washed twice with 5 ml of Krebs Tris HCl buffer, pH 7.4, at 0° C. The radioactivity of the filters was measured by liquid scintillation. The activity of the product was expressed by CI 50: concentration inhibiting by 50% the specific bonding of ^3 H diazepam, determined graphically.

[2] = system: mice; assay: Acute toxicity (lethal dose LD0); assay type: in vivo; conditions: oral
Experimental: The lethal dose LD0 of the compound of Example 1 was evaluated after administration orally in mice. The maximum dose not causing any mortality in 8 days was called the LD0.

[3] = system: mice; assay: Plate test in mice (electric shocks); assay type: in vivo; conditions: for anxiety reducing activity (plate test): conclusion in words, mice (Example 1 also rats)
Experimental: (§1) The apparatus (Apelab) and the method used are described by BOISSER et al [European J. Pharmacol., 1968, Vol. 4, p. 145]. The plates were linked to a stimulator (U. Sachs, Roucaire) which enabled electric shocks of 120 volts to be delivered during 0.5 seconds. The tests were carried out on groups of 10 mice or rats half an hour after oral administration of the compound studied and each animal has put individually on the apparatus. After 15 seconds of free exploration, it was submitted to an electric shock each time it passed from one plate to another, a minimum of 3 seconds being observed between two shocks. The number of shocks delivered was counted over 1 minute and the results obtained were compared to those observed in the control animals in a test by Dunnett.

[4] = system: rats; assay: Staircase test; assay type: in vivo; conditions: 20 mg/kg; 1 hour after administration; counted for 3 minutes
Experimental: The apparatus and the method used are described by THIEBOT et al [Psychol-pharmacologia (Berlin), 1973, Vol. 31, p. 77]. The experiment was carried out on groups of 15 inexperienced rats and the animals were put individually in the enclosure 1 hour after administration of the compound studied. The number of straightenings up and the number of steps claimed were counted for 3 minutes.

[5] = system: rats; assay: Plate test in rats (electric shocks); assay type: in vivo; conditions: oral, 20 mg/kg, half an hour after administration, vs control
Experimental: as §1

Compound | IC50 [1] [nM] | LD0 (maximum dose not causing any mortality in 8 days) [2] | other results
O=c1c2n[nH]c3ccccc3c-2nn1-c1ccc(Cl)cc1 [Example 2, 2-(4-chlorophenyl)-2,5-dihydro-3H-pyrazolo[4,3-c]cinnolin-3-one] | 3.7 | – | –
Cl.O=c1c2n[nH]c3ccccc3c-2nn1-c1ccccn1 [Example 8, 2,5-dihydro-(2-pyridin-2-yl)-3H-pyrazolo[4,3-c]cinnolin-3-one hydrochloride] | 3.1 | > 400 | anxiety reducing activity (plate test) [3]: good anxiety reducing activity; increase in number of shocks ([3]; mice, oral, 100 mg/kg, half an hour after administration, vs control): 50%
Cc1ccccc1-n1nc2c3ccccc3[nH]nc-2c1=O [Example 7, 2,5-dihydro-2-(2-methylphenyl)-3H-pyrazolo[4,3-c]cinnolin-3-one] | – | 200 | –
O=c1c2n[nH]c3ccccc3c-2nn1C1=NCCS1 [Example 10, 2,5-dihydro-(2-dihydrothiazol-2-yl)-3H-pyrazolo[4,3-c]cinnolin-3-one hydrochloride] | – | > 400 | –
O=c1c2n[nH]c3ccccc3c-2nn1-c1cccc(C(F)(F)F)c1 [Example 6, 2,5-dihydro-2-(3-trifluoromethylphenyl)-3H-pyrazolo[4,3-c]cinnolin-3-one] | – | > 400 | –
O=c1c2n[nH]c3ccccc3c-2nn1-c1ccccc1 [Example 3, 2,5-dihydro-2-phenyl-3H-pyrazolo[4,3-c]cinnolin-3-one] | 0.9 | > 200 | anxiety reducing activity (plate test) [3]: good anxiety reducing activity; increase in number of shocks ([3]; mice, oral, 50 mg/kg, half an hour after administration, vs control): 50%
O=c1c2n[nH]c3ccc(Cl)cc3c-2nn1-c1ccccc1 [Example 1, 8-chloro-2,5-dihydro-2-phenyl-3H-pyrazolo[4,3-c]cinnolin-3-one] | – | > 400 | decrease in number of straightenings up [4]: 46%; increase in number of shocks delivered ([3]; mice, oral, 20 mg/kg, half an hour after administration, vs control): 63%; increase in number of shocks delivered [5]: 41%
COc1ccc(-n2nc3c4ccccc4[nH]nc-3c2=O)cc1 [Example 4, 2,5-dihydro-2-(4-methoxyphenyl)-3H-pyrazolo[4,3-c]cinnolin-3-one] | 2.5 | > 400 | –
O=c1c2n[nH]c3ccccc3c-2nn1-c1nccs1 [Example 9, 2,5-dihydro-(2-thiazol-2-yl)-3H-pyrazolo[4,3-c]cinnolin-3-one hydrochloride] | 3.1 | – | –
O=c1c2n[nH]c3ccccc3c-2nn1-c1ccc(OCc2ccccc2)cc1 [Example 5, 2,5-dihydro-2-(4-benzyloxyphenyl)-3H-pyrazolo[4,3-c]cinnolin-3-one] | 18 | > 400 | –
